Reference: publication PMC11379888 (Nature Communications, 2024)
≈ marks a conversion by molar mass, not a printed value. Read-outs that look alike come from different tables or passages of the source.

Columns and labels:
Cdr1 fused with EGFP = Cdr1 fused with EGFP (Candida albicans, UniProt Q5ANA3); assay: Microscale thermophoresis; format: binding, C. albicans
[1] = test system: azole-resistant clinical C. albicans isolates; conditions: cited from earlier work
purified Cdr1 = purified Cdr1 (Candida albicans, UniProt Q5ANA3); assay: ATPase activity assay; format: biochemical, C. albicans; conditions: drug ten times Cdr1 concentration (4 μM vs 0.4 μM), GDN, relative to DMSO
[2] = test system: Cdr1 overexpressed in Pdr5-knocked-out S. cerevisiae; format: cell-based
[3] = test system: Pdr5-deficient S. cerevisiae (empty vector); assay: microbe, parasite or virus in culture; format: cell-based; conditions: Saccharomyces cerevisiae, 48 h, read-out: IC50 (fluconazole-sensitivity, OD600nm)
[4] = test system: C. albicans Cdr1 overexpressed in Pdr5-deficient S. cerevisiae; assay: organism not typed; format: cell-based; conditions: 48 h, read-out: IC50 (fluconazole-sensitivity, OD600nm)
C. albicans Cdr2 = conditions: cited from earlier work
C. albicans Cdr1 = conditions: cited from earlier work

Chain of Cdr1 fused with EGFP (Q5ANA3 whole entry, the tested form may be a part): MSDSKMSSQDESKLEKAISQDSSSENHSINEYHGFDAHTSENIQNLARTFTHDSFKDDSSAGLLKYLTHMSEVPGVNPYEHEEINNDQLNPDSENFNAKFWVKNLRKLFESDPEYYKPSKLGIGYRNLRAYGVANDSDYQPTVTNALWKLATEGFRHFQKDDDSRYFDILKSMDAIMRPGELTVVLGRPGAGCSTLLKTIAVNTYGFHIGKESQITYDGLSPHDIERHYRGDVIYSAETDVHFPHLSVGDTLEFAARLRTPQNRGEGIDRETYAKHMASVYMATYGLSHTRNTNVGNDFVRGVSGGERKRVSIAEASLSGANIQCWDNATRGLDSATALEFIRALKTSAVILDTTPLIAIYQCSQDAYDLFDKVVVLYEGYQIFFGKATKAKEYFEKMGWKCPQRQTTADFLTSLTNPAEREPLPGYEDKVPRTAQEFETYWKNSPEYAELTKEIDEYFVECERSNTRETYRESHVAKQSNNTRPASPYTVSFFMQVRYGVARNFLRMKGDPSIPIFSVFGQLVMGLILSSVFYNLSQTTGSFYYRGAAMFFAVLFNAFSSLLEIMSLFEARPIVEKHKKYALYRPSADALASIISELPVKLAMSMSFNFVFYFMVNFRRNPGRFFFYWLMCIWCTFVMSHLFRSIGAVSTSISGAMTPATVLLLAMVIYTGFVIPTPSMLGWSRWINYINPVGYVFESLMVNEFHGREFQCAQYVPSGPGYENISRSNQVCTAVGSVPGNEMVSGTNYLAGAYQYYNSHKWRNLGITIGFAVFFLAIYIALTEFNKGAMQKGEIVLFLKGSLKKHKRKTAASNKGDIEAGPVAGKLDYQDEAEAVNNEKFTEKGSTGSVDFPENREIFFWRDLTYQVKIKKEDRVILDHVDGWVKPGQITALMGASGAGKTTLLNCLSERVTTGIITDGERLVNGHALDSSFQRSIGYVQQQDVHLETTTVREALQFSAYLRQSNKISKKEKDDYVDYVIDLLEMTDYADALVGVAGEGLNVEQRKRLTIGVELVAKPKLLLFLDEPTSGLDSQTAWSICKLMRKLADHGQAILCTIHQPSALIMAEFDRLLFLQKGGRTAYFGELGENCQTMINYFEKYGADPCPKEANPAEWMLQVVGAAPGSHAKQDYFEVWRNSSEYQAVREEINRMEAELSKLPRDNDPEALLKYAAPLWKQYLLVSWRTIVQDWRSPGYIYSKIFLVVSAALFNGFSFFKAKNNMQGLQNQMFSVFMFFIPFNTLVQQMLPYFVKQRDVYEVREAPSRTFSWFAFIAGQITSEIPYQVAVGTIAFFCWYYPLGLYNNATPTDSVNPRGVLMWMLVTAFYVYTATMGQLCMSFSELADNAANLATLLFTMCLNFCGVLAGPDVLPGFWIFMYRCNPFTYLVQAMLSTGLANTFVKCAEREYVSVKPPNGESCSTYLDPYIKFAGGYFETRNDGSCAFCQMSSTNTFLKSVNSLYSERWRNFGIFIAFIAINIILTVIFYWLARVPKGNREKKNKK
Chain of purified Cdr1 (Q5ANA3 whole entry): as the sequence (Q5ANA3 whole entry, the tested form may be a part) above

Row | Compound | Kd (Cdr1 fused with EGFP; read-out: dissociation constant (Kd), 100 nM Cdr1, PBS 0.02% DDM, 25 °C) [µM] | synergy with fluconazole [1] | ATP hydrolysis (relative ATPase activity, mean) (purified Cdr1) | selectivity of inhibition Cdr1 vs Pdr5 ([2]; […], 1 μg/mL fluconazole, 0.1 μg/mL milbemycin oxime) | IC50 (milbemycin oxime-sensitivity, OD600nM) ([2]; with 1 µg/mL fluconazole) [µg/mL] | IC50 (milbemycin oxime-sensitivity, OD600nM) ([2]; with 10 µg/mL fluconazole) [µg/mL] | IC50 [3] [µg/mL] | Kd (Cdr1 fused with EGFP) [µM] | IC50 [4] [µg/mL] | inhibition of Cdr2 (C. albicans Cdr2) | inhibition of Cdr1 (C. albicans Cdr1)
1 | milbemycin oxime | 0.147 | strong synergistic effects with fluconazole | 25.7% | selectively inhibits Cdr1 rather than Pdr5 | 0.034 | 0.009 | – | – | – | – | –
2 | OC(Cn1cncn1)(Cn1cncn1)c1ccc(F)cc1F [fluconazole] | – | – | decreases slightly | – | – | – | 0.31 (≈ 1.01 µM) | 61.4 | 56.6 (≈ 185 µM) | – | –
3 | milbemycin α25 | – | – | – | – | – | – | – | – | – | potent inhibition | potent inhibition
